Each structure is given as a SMILES string. Converted amounts (≈) assume the structure as drawn.

One series addresses T1, SGK1 (Homo sapiens, UniProt O00141).
T1 sequence (O00141 1-431): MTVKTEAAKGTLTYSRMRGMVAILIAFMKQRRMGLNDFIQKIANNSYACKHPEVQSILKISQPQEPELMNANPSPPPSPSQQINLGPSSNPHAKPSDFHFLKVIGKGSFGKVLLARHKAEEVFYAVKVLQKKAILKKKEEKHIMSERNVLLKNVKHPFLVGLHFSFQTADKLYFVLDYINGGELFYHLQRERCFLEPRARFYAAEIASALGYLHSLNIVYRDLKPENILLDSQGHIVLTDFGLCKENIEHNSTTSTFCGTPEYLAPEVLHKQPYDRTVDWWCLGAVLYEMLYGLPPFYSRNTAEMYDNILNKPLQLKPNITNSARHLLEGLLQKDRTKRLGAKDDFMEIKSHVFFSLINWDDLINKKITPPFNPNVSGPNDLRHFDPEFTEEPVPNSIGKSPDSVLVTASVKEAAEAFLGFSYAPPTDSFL
Description: Inhibition of SGK1 (flashplate assay). Format: biochemical. The settings on record: flashplate method. The procedure:
The test plates used are 384-well flashplate microtitre plates from Perkin Elmer (USA). The components of the kinase reaction are pipetted into the assay plate. The SGK1 kinase is incubated for 3 hr. with radioactively labelled ^33P-ATP in the presence and absence of test substances in a total volume of 100 μl at room temperature together with biotinylated poly(Glu, Tyr)4:1. The reaction is terminated using 25 μl of a 200 mM EDTA solution. After incubation for a further 30 min at room temperature, the supernatants are removed by suction, and the wells are washed three times with 100 μl of 0.9% NaCl solution each time. The radioactivity is measured using a Topcount scintillation counter (PerkinElmer, USA). IC50 values are calculated using the RS1 computer program.

The next series deals with T2, TGFβR1 (Homo sapiens, UniProt P36897).
T2 sequence (P36897 34-503): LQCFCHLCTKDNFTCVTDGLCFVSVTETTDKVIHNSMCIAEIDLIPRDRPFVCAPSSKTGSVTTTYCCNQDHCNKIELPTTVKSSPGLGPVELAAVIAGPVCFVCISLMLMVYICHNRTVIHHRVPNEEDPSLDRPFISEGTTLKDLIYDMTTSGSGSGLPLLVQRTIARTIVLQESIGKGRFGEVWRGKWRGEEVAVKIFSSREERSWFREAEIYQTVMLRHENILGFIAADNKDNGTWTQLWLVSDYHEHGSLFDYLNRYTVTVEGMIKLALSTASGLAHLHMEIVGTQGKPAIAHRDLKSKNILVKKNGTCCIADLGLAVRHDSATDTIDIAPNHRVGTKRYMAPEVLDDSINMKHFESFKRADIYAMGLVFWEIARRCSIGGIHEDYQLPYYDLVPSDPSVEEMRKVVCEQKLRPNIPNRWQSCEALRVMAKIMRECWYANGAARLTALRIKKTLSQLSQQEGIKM
Description: Inhibition of TGFβR1 (flashplate assay). Format: biochemical. Conditions: flashplate method. The procedure, abridged:
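Kinase was incubated 45 min with 33P-ATP and biotinylated substrate, with or without test substances, then stopped with EDTA. Incorporated radioactivity was counted by scintillation in a flashplate format. IC50 values were calculated from the counts.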

In another series the target is T3, IGF1 receptor (IGF1R) (Homo sapiens, UniProt P08069).
T3 construct: endogenous in cells; host or cells: MCF-7 or Calu-6
Description: Inhibition of IGF1R (ELISA assay), IGF1-stimulated autophosphorylation in cells. The settings on record: human tumour cells stimulated with IGF1, read-out: IC50 IGF (ELISA). The format is cell-based. The procedure, abridged:
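Cells were preincubated 45 min with increasing compound concentrations, then stimulated 5 min with IGF1. Phospho-IGF1R in lysates was captured by a receptor-specific antibody and detected with anti-phosphotyrosine antibody via chemiluminescence ELISA or fluorescent LUMINEX read-out.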

A short description of series [1]: Solubility in phosphate buffer by the shake flask method. The format is physicochemical. The settings on record: pH 7.0, 37° C., 24 h shake flask; for solubility at 24 h: 37 °C, pH 7, aqueous buffer, thermodynamic from solid. On the procedure: The procedure described in Glomme et al. (J. Pharm. Sci. 94(1): 1-16, 2005) is followed. The concentration determination is carried out by HPLC with UV detection against a standard solution.
Buffer: 3.954 g of sodium dihydrogenphosphate monohydrate 6.024 g of sodium chloride +950 ml of ultrapure water. Setting of pH 7.0 using 0.1 M NaOH or 0.1 M HCl.
The samples were shaken at 37° C. and 450 rpm for 24 h. After about 7 h, the pH of the samples was checked and adjusted if necessary. It was checked whether the sample was still present in excess. Just before the end of the 24 h shaking time, the samples were again checked for pH and a precipitate.
• Ultrapure water plant: MilliQ gradient, Millipore, unit: F3PN37462D • Shaker: TiMix control, Bühler • Incubation hood: TH 15, Bühler • pH meter: 766 Calimatic Knick instrument: pH 1 • pH electrode: InLab 423 Mettler • HPLC: column: LiChroCart 125-4 LiChrospher 100 RP-18 • flow rate: 1.000 ml/min • eluents: • eluent A: 2 ml of diethylamine, for synthesis+1000 ml of methanol, LiChrosolv • eluent B: 5 g of ammonium acetate, for analysis+5 ml of methanol, LiChrosolv+995 ml of ultrapure water

T3 sequence (P08069 31-1367): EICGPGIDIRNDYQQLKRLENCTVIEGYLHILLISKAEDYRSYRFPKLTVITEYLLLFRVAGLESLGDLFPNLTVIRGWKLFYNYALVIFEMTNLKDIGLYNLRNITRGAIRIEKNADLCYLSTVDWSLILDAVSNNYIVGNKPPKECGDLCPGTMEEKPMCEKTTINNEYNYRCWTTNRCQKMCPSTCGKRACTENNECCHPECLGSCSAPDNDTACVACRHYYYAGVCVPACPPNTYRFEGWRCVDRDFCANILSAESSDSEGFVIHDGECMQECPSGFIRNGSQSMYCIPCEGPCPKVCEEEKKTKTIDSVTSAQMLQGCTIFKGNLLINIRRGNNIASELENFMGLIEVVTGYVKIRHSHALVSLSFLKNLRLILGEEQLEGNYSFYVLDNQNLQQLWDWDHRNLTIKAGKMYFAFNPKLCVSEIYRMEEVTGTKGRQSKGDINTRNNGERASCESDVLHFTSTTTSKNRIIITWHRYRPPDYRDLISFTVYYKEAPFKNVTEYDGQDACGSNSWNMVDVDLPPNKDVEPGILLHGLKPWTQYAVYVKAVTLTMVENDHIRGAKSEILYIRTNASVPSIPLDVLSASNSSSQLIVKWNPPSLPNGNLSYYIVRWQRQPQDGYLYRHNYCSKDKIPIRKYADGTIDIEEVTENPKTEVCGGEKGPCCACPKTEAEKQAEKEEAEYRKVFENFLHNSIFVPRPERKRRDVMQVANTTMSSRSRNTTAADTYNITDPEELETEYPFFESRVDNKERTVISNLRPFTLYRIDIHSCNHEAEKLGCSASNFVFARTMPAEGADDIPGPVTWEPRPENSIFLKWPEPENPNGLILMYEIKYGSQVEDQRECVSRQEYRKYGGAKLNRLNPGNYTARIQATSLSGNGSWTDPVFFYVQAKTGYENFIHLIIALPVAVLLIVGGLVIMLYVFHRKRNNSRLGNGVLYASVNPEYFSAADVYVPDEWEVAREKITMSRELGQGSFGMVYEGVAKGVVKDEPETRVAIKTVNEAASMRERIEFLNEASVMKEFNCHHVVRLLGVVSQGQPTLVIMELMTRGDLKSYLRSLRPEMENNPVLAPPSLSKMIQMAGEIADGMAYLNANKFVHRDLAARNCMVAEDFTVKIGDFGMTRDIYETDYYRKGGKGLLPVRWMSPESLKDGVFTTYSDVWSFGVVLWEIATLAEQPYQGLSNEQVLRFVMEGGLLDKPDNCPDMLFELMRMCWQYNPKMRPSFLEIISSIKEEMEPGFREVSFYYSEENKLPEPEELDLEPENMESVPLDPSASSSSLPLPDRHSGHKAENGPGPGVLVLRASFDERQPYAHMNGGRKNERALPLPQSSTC

Consider `NCC1CC(n2cc(-c3cc4ccccc4o3)c3c(N)ncnc32)C1` (centres unmarked) [Compound 37], for which the IC50 against SGK1 is 6.1 µM; against TGFβR1 it was 0.21 µM; on IGF1 receptor (IGF1R) it was 29 µM.
Consider `Nc1ncnc2c1c(-c1cccc(O)c1)cn2C1CC(CN2CCCC2)C1` (centres unmarked) [Compound 1, 3-[4-amino-7-(3-pyrrolidin-1-ylmethylcyclobutyl)-7H-pyrrolo[2,3-d]pyrimidin-5-yl]phenol], for which the solubility at 24 h in series [1] was 1070 µg/mL (≈ 2.95 mM). Further, the half-maximal inhibitory concentration (IC50) on TGFβR1 is 0.12 µM; on IGF1 receptor (IGF1R) it was 2.4 µM.
`NCC1CC(n2cc(-c3ccc4[nH]ccc4c3)c3c(N)ncnc32)C1` (centres unmarked) [Compound 3, 7-(3-Aminomethylcyclobutyl)-5-(1H-indol-5-yl)-7H-pyrrolo[2,3-d]pyrimidin-4-ylamine] yielded a solubility at 24 h in series [1] of 1330 µg/mL (≈ 3.99 mM). Further, the IC50 came to 0.18 µM at TGFβR1 and 5 µM at IGF1 receptor (IGF1R).
Regarding `Nc1ncnc2c1c(-c1cccc(O)c1)cn2C1CC(CN2CCCC2)C1` (centres unmarked) [Compound 2, 3-[4-Amino-7-(3-pyrrolidin-1-ylmethylcyclobutyl)-7H-pyrrolo[2,3-d]pyrimidin-5-yl]phenol], the Solubility is 1147 µg/mL (≈ 3.16 mM) in series [1] and 1147 (tosylate) μg/ml in series [1] (listed as 3-[4-Amino-7-(3-pyrrolidin-1-ylmethylcyclobutyl)-7H-pyrrolo[2,3-d]pyrimidin-5-yl). Moreover, the IC50 at SGK1 was 7.4 µM; against TGFβR1, 0.14 µM; at IGF1 receptor (IGF1R), 5.9 µM.

The record behind these values is US20100160356A1, “NOVEL CYCLOBUTYL COMPOUNDS AS KINASE INHIBITORS” (priority 2006, published 2010).
